Species: Rattus norvegicus
Test: Open TG-GATES - Regimen: Single
Assay type: toxicity, organism-based, Sprague-Dawley
Set-up: regimen Single, gender Male, age 6 weeks
Details: in vivo, po, 60 mg/kg, route gavage, dose level Low; for APTT / Bas / Eos / Fbg / Hb / Ht / Lym / MCH / MCHC / MCV / Mono / Neu / PT / Plat / RBC / Ret / WBC: tissue Blood; for KIDNEY_L / KIDNEY_R / KIDNEY_TOTAL: tissue Kidney; for LIVER: tissue Liver; for A/G / ALP / ALT / AST / BUN / CRE / Ca / Cl / DBIL / GLC / IP / K / LDH / Na / PL / RALB / TBIL / TC / TG / TP / gamma-GTP: tissue Plasma

SMILES: C[C@](N)(Cc1ccc(O)c(O)c1)C(=O)O [METHYLDOPA]
- TERMINAL_BW (3 h): 185.6 g
- APTT (3 h): 17.5 s
- Bas (3 h): 0%
- Eos (3 h): 0.6%
- Fbg (3 h): 265.2 mg/dL
- Hb (3 h): 12.9 g/dL
- Ht (3 h): 38.4%
- Lym (3 h): 79%
- MCH (3 h): 21.9 pg
- MCHC (3 h): 33.5%
- MCV (3 h): 65.4 fL
- Mono (3 h): 3.2%
- Neu (3 h): 16.6%
- PT (3 h): 12.5 s
- Plat (3 h): 123.5 x10_4/uL
- RBC (3 h): 587 x10_4/ul
- Ret (3 h): 10.7%
- WBC (3 h): 81.1 x10_2/uL
- KIDNEY_L (3 h): 0.8 g
- KIDNEY_R (3 h): 0.8 g
- KIDNEY_TOTAL (3 h): 1.6 g
- LIVER (3 h): 7.8 g
- A/G (3 h): 0.9
- ALP (3 h): 1439.4 IU/L
- ALT (3 h): 54.2 IU/L
- AST (3 h): 80 IU/L
- BUN (3 h): 9 mg/dL
- CRE (3 h): 0.1 mg/dL
- Ca (3 h): 11.5 mg/dL
- Cl (3 h): 107.2 meq/L
- DBIL (3 h): 0.02 mg/dL
- GLC (3 h): 186 mg/dL
- IP (3 h): 10.1 mg/dL
- K (3 h): 4.4 meq/L
- LDH (3 h): 60.4 IU/L
- Na (3 h): 143.8 meq/L
- PL (3 h): 142.8 mg/dL
- RALB (3 h): 2.6 g/dL
- TBIL (3 h): 0.078 mg/dL
- TC (3 h): 82.2 mg/dL
- TG (3 h): 70.2 mg/dL
- TP (3 h): 5.5 g/dL
- gamma-GTP (3 h): 1.4 IU/L
- TERMINAL_BW (6 h): 189.2 g
- APTT (6 h): 16.7 s
- Bas (6 h): 0%
- Eos (6 h): 1%
- Fbg (6 h): 250.4 mg/dL
- Hb (6 h): 13 g/dL
- Ht (6 h): 38.6%
- Lym (6 h): 78.8%
- MCH (6 h): 21.7 pg
- MCHC (6 h): 33.6%
- MCV (6 h): 64.8 fL
- Mono (6 h): 3.2%
- Neu (6 h): 16.2%
- PT (6 h): 12.4 s
- Plat (6 h): 117 x10_4/uL
- RBC (6 h): 596.4 x10_4/ul
- Ret (6 h): 10.3%
- WBC (6 h): 64 x10_2/uL
- KIDNEY_L (6 h): 0.8 g
- KIDNEY_R (6 h): 0.8 g
- KIDNEY_TOTAL (6 h): 1.6 g
- LIVER (6 h): 7.6 g
- A/G (6 h): 0.9
- ALP (6 h): 1752.4 IU/L
- ALT (6 h): 50.2 IU/L
- AST (6 h): 82 IU/L
- BUN (6 h): 6.4 mg/dL
- CRE (6 h): 0.2 mg/dL
- Ca (6 h): 11.2 mg/dL
- Cl (6 h): 107.6 meq/L
- DBIL (6 h): 0.008 mg/dL
- GLC (6 h): 184 mg/dL
- IP (6 h): 11.4 mg/dL
- K (6 h): 4.7 meq/L
- LDH (6 h): 49.8 IU/L
- Na (6 h): 144.2 meq/L
- PL (6 h): 125.8 mg/dL
- RALB (6 h): 2.5 g/dL
- TBIL (6 h): 0.064 mg/dL
- TC (6 h): 79 mg/dL
- TG (6 h): 45.6 mg/dL
- TP (6 h): 5.4 g/dL
- gamma-GTP (6 h): 1 IU/L
- TERMINAL_BW (9 h): 187.5 g
- APTT (9 h): 17.1 s
- Bas (9 h): 0%
- Eos (9 h): 0.8%
- Fbg (9 h): 248.8 mg/dL
- Hb (9 h): 12.8 g/dL
- Ht (9 h): 37.7%
- Lym (9 h): 74.4%
- MCH (9 h): 22 pg
- MCHC (9 h): 34%
- MCV (9 h): 64.7 fL
- Mono (9 h): 2.6%
- Neu (9 h): 21.2%
- PT (9 h): 12.4 s
- Plat (9 h): 117.7 x10_4/uL
- RBC (9 h): 583 x10_4/ul
- Ret (9 h): 10%
- WBC (9 h): 65.1 x10_2/uL
- KIDNEY_L (9 h): 0.8 g
- KIDNEY_R (9 h): 0.8 g
- KIDNEY_TOTAL (9 h): 1.6 g
- LIVER (9 h): 7.1 g
- A/G (9 h): 0.9
- ALP (9 h): 1707.4 IU/L
- ALT (9 h): 47 IU/L
- AST (9 h): 75.6 IU/L
- BUN (9 h): 10.6 mg/dL
- CRE (9 h): 0.1 mg/dL
- Ca (9 h): 11 mg/dL
- Cl (9 h): 107.4 meq/L
- DBIL (9 h): 0.008 mg/dL
- GLC (9 h): 201.2 mg/dL
- IP (9 h): 10.6 mg/dL
- K (9 h): 4.5 meq/L
- LDH (9 h): 51.4 IU/L
- Na (9 h): 144.2 meq/L
- PL (9 h): 111.8 mg/dL
- RALB (9 h): 2.5 g/dL
- TBIL (9 h): 0.064 mg/dL
- TC (9 h): 71.2 mg/dL
- TG (9 h): 32.4 mg/dL
- TP (9 h): 5.2 g/dL
- gamma-GTP (9 h): 1 IU/L
- TERMINAL_BW (24 h): 194.5 g
- APTT (24 h): 18.6 s
- Bas (24 h): 0%
- Eos (24 h): 1.2%
- Fbg (24 h): 242.4 mg/dL
- Hb (24 h): 13.1 g/dL
- Ht (24 h): 38.9%
- Lym (24 h): 78.4%
- MCH (24 h): 21.4 pg
- MCHC (24 h): 33.7%
- MCV (24 h): 63.6 fL
- Mono (24 h): 2.8%
- Neu (24 h): 17.4%
- PT (24 h): 12.6 s
- Plat (24 h): 115.8 x10_4/uL
- RBC (24 h): 612.6 x10_4/ul
- Ret (24 h): 9.4%
- WBC (24 h): 81.6 x10_2/uL
- KIDNEY_L (24 h): 0.8 g
- KIDNEY_R (24 h): 0.8 g
- KIDNEY_TOTAL (24 h): 1.6 g
- LIVER (24 h): 9.2 g
- A/G (24 h): 0.9
- ALP (24 h): 1854.6 IU/L
- ALT (24 h): 52 IU/L
- AST (24 h): 81.2 IU/L
- BUN (24 h): 15.6 mg/dL
- CRE (24 h): 0.2 mg/dL
- Ca (24 h): 11.4 mg/dL
- Cl (24 h): 108 meq/L
- DBIL (24 h): 0.016 mg/dL
- GLC (24 h): 189.8 mg/dL
- IP (24 h): 8 mg/dL
- K (24 h): 4.5 meq/L
- LDH (24 h): 98.4 IU/L
- Na (24 h): 143.6 meq/L
- PL (24 h): 136.2 mg/dL
- RALB (24 h): 2.6 g/dL
- TBIL (24 h): 0.064 mg/dL
- TC (24 h): 71.4 mg/dL
- TG (24 h): 85.4 mg/dL
- TP (24 h): 5.5 g/dL
- gamma-GTP (24 h): 1 IU/L

Source: ChEMBL document CHEMBL3885861, “Open TG-GATES”
